The text below walks through data of patent publication US6596715B1, “Protease inhibitors” (SmithKline Beecham Corporation, priority 1999, dated 2003).

The nature of this data set: Chiral / configurational stability at the carbon alpha to the ketone. Type of data set: physicochemical.

The structures appear in SMILES notation.

As for `[2H]C1(NC(=O)[C@H](CC(C)C)NC(=O)c2ccc3ccccc3n2)CCCN(S(=O)(=O)c2cccc[n+]2[O-])C([2H])([2H])C1=O` (stereo partly drawn) [Formula (I), quinoline-2-carboxylic acid {(S)-3-methyl-1-[(2,2,4-trideuterio)-3-oxo-1-(1-oxy-pyridine-2-sulfonyl)-azepan-4-ylcarbamoyl]-butyl}amide], the “configurational stability at the carbon center alpha to the ketone” value (compared to the corresponding 5 and 6 membered ring compounds) is recorded as “configurationally more stable”. Besides, the chiral stability entry (compared to the protonated isomer) is listed as “superior chiral stability”.
